The results in this text go back to patent US10406207B2, “Peptide conjugates of GLP-1 receptor agonists and gastrin and their use” (priority 2010, dated 2019).

One assay concerns the target T1, human CCK-B R (Homo sapiens, UniProt P32239).
T1 construct: expressed in transfected cells
T1 sequence (P32239 1-447): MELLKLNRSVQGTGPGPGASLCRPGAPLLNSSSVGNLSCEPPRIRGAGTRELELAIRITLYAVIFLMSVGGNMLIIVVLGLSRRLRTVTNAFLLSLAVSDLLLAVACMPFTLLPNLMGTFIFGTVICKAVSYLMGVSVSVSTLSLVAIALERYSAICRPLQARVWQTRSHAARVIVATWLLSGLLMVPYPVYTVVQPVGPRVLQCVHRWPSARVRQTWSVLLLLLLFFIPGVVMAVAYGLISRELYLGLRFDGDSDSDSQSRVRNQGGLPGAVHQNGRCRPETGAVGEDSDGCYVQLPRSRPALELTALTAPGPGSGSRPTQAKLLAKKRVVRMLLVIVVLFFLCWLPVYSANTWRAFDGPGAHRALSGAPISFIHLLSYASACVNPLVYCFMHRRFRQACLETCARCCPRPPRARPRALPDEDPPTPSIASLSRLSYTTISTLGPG
Put plainly: Human CCK-B receptor efficacy assay (AlphaScreen SureFire p-ERK). It counts as cell-based. The conditions noted are these: Table 2; read-out: hCCK-B R EC50. In general terms: Alpha assays give light when donor and acceptor beads are brought close together.

The next assay deals with T2, human GLP-1 R (Homo sapiens, UniProt P43220).
T2 construct: expressed in transfected cells
T2 sequence (P43220 24-463): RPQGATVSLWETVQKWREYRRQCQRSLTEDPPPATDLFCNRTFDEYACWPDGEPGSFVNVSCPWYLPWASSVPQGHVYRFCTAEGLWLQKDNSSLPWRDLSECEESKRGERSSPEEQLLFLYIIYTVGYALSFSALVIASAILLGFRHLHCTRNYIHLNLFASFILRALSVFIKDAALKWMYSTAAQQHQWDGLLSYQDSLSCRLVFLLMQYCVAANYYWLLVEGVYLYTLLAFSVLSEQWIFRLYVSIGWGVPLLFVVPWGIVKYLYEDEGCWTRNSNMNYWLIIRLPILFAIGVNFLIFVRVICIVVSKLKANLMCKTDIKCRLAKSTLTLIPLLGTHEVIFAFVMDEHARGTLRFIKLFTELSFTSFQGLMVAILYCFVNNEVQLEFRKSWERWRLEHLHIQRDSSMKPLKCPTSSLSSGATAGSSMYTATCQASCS
Put plainly: Human GLP-1 receptor efficacy assay (cAMP induction, FlashPlate). It is filed as cell-based. The conditions noted are these: Table 2; read-out: hGLP-1 R EC50. As to the method: On the day of analysis, growth medium was removed and the cells were washed once with 200 μl Tyrode buffer [Tyrode's Salts (9.6 g/l), 10 mM HEPES, pH 7.4]. […] The reaction was stopped by addition of 25 μl 0.5 M HCl and incubated on ice for 60 min.

As a reminder, the EC50 is the concentration that produces a half-maximal response.

Square brackets hold non-standard residues; d marks the D form. Peptide text beside a SMILES is read from it. Orn = NCCC[C@H](N)C(=O)O; AEEA = NCCOCCOCC(=O)O

As for `CC[C@H](C)[C@H](NC(=O)[C@H](Cc1ccccc1)NC(=O)[C@H](CC(C)C)NC(=O)[C@H](CCCNC(=N)N)NC(=O)[C@@H](NC(=O)[C@H](C)NC(=O)[C@H](CCC(=O)O)NC(=O)[C@H](CCC(=O)O)NC(=O)[C@H](CCC(=O)O)NC(=O)[C@H](CCSC)NC(=O)[C@H](CCC(N)=O)NC(=O)[C@H](CCCCN)NC(=O)[C@H](CO)NC(=O)[C@H](CC(C)C)NC(=O)[C@H](CC(=O)O)NC(=O)[C@H](CO)NC(=O)[C@@H](NC(=O)[C@H](Cc1ccccc1)NC(=O)[C@@H](NC(=O)CNC(=O)[C@H](CCC(=O)O)NC(=O)CNC(=O)[C@@H](N)Cc1c[nH]cn1)[C@@H](C)O)[C@@H](C)O)C(C)C)C(=O)N[C@@H](CCC(=O)O)C(=O)N[C@@H](Cc1ccccc1)C(=O)N[C@@H](CC(C)C)C(=O)N[C@@H](CCCCN)C(=O)N[C@@H](CC(N)=O)C(=O)NCCOCCOCC(=O)NCCOCCOCC(=O)N[C@@H](Cc1ccc(O)cc1)C(=O)NCC(=O)N[C@@H](Cc1c[nH]c2ccccc12)C(=O)N[C@@H](CC(C)C)C(=O)N[C@@H](CC(=O)O)C(=O)N[C@@H](Cc1ccccc1)C(N)=O` [Compound 63, [Phe25]Exendin-4(1-28)-Peg3-Peg3-[Leu4]Gastrin6], the EC50 is 8.5 nM on human CCK-B R and 0.041 nM on human GLP-1 R.
As for `CC[C@H](C)[C@H](NC(=O)[C@H](Cc1ccccc1)NC(=O)[C@H](CC(C)C)NC(=O)[C@H](CCCNC(=N)N)NC(=O)[C@@H](NC(=O)[C@H](C)NC(=O)[C@H](CCC(=O)O)NC(=O)[C@H](CCC(=O)O)NC(=O)[C@H](CCC(=O)O)NC(=O)[C@H](CCSC)NC(=O)[C@H](Cc1ccc(O)cc1)NC(=O)[C@H](CCCCN)NC(=O)[C@H](CO)NC(=O)[C@H](CC(C)C)NC(=O)[C@H](CC(=O)O)NC(=O)[C@H](CO)NC(=O)[C@@H](NC(=O)[C@H](Cc1ccccc1)NC(=O)[C@@H](NC(=O)CNC(=O)[C@H](CCC(=O)O)NC(=O)CNC(=O)[C@@H](N)Cc1c[nH]cn1)[C@@H](C)O)[C@@H](C)O)C(C)C)C(=O)N[C@@H](CCC(=O)O)C(=O)N[C@@H](Cc1c[nH]c2ccccc12)C(=O)N[C@@H](CC(C)C)C(=O)N[C@@H](CCCCN)C(=O)N[C@@H](CC(N)=O)C(=O)NCCOCCOCC(=O)NCCOCCOCC(=O)N[C@@H](Cc1ccc(O)cc1)C(=O)NCC(=O)N[C@@H](Cc1c[nH]c2ccccc12)C(=O)N[C@@H](CC(C)C)C(=O)N[C@@H](CC(=O)O)C(=O)N[C@@H](Cc1ccccc1)C(N)=O` [Compound 65, [Tyr13]Exendin-4(1-28)-Peg3-Peg3-[Leu4]Gastrin6] (H-HGEGTFTSDLSKYMEEEAVRLFIEWLKN[AEEA][AEEA]YGWLDF-NH2), the 50% effective concentration (EC50) at human CCK-B R came out at 12 nM; at human GLP-1 R, 0.046 nM.
For `CC[C@H](C)[C@H](NC(=O)[C@H](Cc1ccccc1)NC(=O)[C@H](CC(C)C)NC(=O)[C@H](CCCN)NC(=O)[C@@H](NC(=O)[C@H](C)NC(=O)[C@H](CCC(=O)O)NC(=O)[C@H](CCC(=O)O)NC(=O)[C@H](CCC(=O)O)NC(=O)[C@H](CCSC)NC(=O)[C@H](CCC(N)=O)NC(=O)[C@H](CCCCN)NC(=O)[C@H](CO)NC(=O)[C@H](CC(C)C)NC(=O)[C@H](CC(=O)O)NC(=O)[C@H](CO)NC(=O)[C@@H](NC(=O)[C@H](Cc1ccccc1)NC(=O)[C@@H](NC(=O)CNC(=O)[C@H](CCC(=O)O)NC(=O)CNC(=O)[C@@H](N)Cc1c[nH]cn1)[C@@H](C)O)[C@@H](C)O)C(C)C)C(=O)N[C@@H](CCC(=O)O)C(=O)N[C@@H](Cc1c[nH]c2ccccc12)C(=O)N[C@@H](CC(C)C)C(=O)N[C@@H](CCCCN)C(=O)N[C@@H](CC(N)=O)C(=O)NCCOCCOCC(=O)NCCOCCOCC(=O)N[C@@H](Cc1ccc(O)cc1)C(=O)NCC(=O)N[C@@H](Cc1c[nH]c2ccccc12)C(=O)N[C@@H](CC(C)C)C(=O)N[C@@H](CC(=O)O)C(=O)N[C@@H](Cc1ccccc1)C(N)=O` [Compound 66, [Orn20]Exendin-4(1-28)-Peg3-Peg3-[Leu4]Gastrin6] (H-HGEGTFTSDLSKQMEEEAV[Orn]LFIEWLKN[AEEA][AEEA]YGWLDF-NH2), the EC50 at human CCK-B R was 15 nM; on human GLP-1 R, 0.038 nM.
In the same order, the values of `CC[C@H](C)[C@H](NC(=O)[C@H](Cc1ccccc1)NC(=O)[C@H](CC(C)C)NC(=O)[C@H](CCCNC(=N)N)NC(=O)[C@@H](NC(=O)[C@H](C)NC(=O)[C@H](CCC(=O)O)NC(=O)[C@H](CCCCN)NC(=O)[C@H](CCC(=O)O)NC(=O)[C@H](CCSC)NC(=O)[C@H](CCC(N)=O)NC(=O)[C@H](CCCCN)NC(=O)[C@H](CO)NC(=O)[C@H](CC(C)C)NC(=O)[C@H](CC(=O)O)NC(=O)[C@H](CO)NC(=O)[C@@H](NC(=O)[C@H](Cc1ccccc1)NC(=O)[C@@H](NC(=O)CNC(=O)[C@H](CCC(=O)O)NC(=O)CNC(=O)[C@@H](N)Cc1c[nH]cn1)[C@@H](C)O)[C@@H](C)O)C(C)C)C(=O)N[C@@H](CCC(=O)O)C(=O)N[C@@H](Cc1c[nH]c2ccccc12)C(=O)N[C@@H](CC(C)C)C(=O)N[C@@H](CCCCN)C(=O)N[C@@H](CC(N)=O)C(=O)NCCOCCOCC(=O)NCCOCCOCC(=O)N[C@@H](Cc1ccc(O)cc1)C(=O)NCC(=O)N[C@@H](Cc1c[nH]c2ccccc12)C(=O)N[C@@H](CC(C)C)C(=O)N[C@@H](CC(=O)O)C(=O)N[C@@H](Cc1ccccc1)C(N)=O` [Compound 81, [Lys16]Exendin-4(1-28)-Peg3-Peg3-[Leu4]Gastrin6] (H-HGEGTFTSDLSKQMEKEAVRLFIEWLKN[AEEA][AEEA]YGWLDF-NH2) are 15 nM and 0.032 nM.
In the same order, the values of `CC[C@H](C)[C@H](NC(=O)[C@H](Cc1ccccc1)NC(=O)[C@H](CC(C)C)NC(=O)[C@H](CCCNC(=N)N)NC(=O)[C@@H](NC(=O)[C@H](C)NC(=O)[C@H](CCC(=O)O)NC(=O)[C@H](CCC(=O)O)NC(=O)[C@H](CCC(=O)O)NC(=O)[C@H](CC(C)C)NC(=O)[C@H](Cc1ccc(O)cc1)NC(=O)[C@H](CCCCN)NC(=O)[C@H](CO)NC(=O)[C@H](CC(C)C)NC(=O)[C@H](CCC(=O)O)NC(=O)[C@H](CO)NC(=O)[C@@H](NC(=O)[C@H](Cc1ccccc1)NC(=O)[C@@H](NC(=O)CNC(=O)[C@H](CCC(=O)O)NC(=O)CNC(=O)[C@@H](N)Cc1c[nH]cn1)[C@@H](C)O)[C@@H](C)O)C(C)C)C(=O)N[C@@H](CCC(=O)O)C(=O)N[C@@H](Cc1ccccc1)C(=O)N[C@@H](CC(C)C)C(=O)N[C@@H](CCCCN)C(=O)NCCOCCOCC(=O)NCCOCCOCC(=O)N[C@@H](Cc1ccc(O)cc1)C(=O)NCC(=O)N[C@@H](Cc1c[nH]c2ccccc12)C(=O)N[C@@H](CC(C)C)C(=O)N[C@@H](CC(=O)O)C(=O)N[C@@H](Cc1ccccc1)C(N)=O` [Compound 88, [Glu9,Leu14,Phe25,Tyr13]Exendin-4(1-27)-Peg3-Peg3-[Leu4]Gastrin6] (H-HGEGTFTSELSKYLEEEAVRLFIEFLK[AEEA][AEEA]YGWLDF-NH2) are 20 nM and 0.046 nM.
